Assay results reported in patent publication US20060063759A1, “Tricyclic steroid hormone nuclear receptor modulators” (priority 2002, published 2006).

Experiments:
human MR = target: T1, human MR (Homo sapiens, UniProt P08235); assay: Mineralocorticoid Receptor Binding Assay ([3H]-aldosterone); settings: [3H]-aldosterone binding, human MR expressed in Sf9 cells; read-out: MR Ki
T1 construct: The full length human MR gene is cloned from a human kidney or human brain cDNA library; His tag from the pAcHLT vector (own knowledge); made in house; host or cells: Sf9 insect cells (baculovirus, pAcHLT transfer vector)
T1 sequence (P08235 1-984): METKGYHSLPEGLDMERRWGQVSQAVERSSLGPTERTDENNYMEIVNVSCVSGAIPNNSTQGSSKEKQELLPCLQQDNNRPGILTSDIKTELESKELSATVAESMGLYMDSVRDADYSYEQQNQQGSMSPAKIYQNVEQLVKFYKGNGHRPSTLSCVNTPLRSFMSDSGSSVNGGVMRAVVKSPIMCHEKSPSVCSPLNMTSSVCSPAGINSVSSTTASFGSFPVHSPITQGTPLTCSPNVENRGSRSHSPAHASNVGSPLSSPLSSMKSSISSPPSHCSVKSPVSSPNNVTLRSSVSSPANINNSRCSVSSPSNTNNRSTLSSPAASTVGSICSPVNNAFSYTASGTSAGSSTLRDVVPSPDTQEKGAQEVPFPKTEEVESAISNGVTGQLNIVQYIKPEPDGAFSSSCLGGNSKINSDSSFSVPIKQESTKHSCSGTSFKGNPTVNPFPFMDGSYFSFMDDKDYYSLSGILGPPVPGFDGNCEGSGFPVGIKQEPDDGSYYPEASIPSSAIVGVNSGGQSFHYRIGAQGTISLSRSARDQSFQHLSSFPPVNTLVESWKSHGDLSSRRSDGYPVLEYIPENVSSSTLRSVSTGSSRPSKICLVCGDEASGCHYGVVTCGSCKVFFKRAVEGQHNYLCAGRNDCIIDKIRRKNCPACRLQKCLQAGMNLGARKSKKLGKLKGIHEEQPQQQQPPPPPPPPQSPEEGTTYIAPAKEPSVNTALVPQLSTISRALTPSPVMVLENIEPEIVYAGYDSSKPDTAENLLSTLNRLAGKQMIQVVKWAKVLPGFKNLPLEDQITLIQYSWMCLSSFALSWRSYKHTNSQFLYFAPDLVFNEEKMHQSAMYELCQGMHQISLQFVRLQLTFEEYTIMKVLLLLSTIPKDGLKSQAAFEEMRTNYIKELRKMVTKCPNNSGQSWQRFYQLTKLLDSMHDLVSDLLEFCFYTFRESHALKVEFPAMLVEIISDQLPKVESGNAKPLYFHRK
How it was run: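 Lysate supernatant of Sf9 cells expressing full-length human MR (20-25 μg protein) was incubated with 0.5 nM [3H]-aldosterone and test compound in molybdate/Tris/phosphate/glycerol buffer, pH 7.5, ~16 h at 4 °C. Bound ligand was filtered and counted by scintillation; IC50 is the concentration halving [3H]-aldosterone binding.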

glucocorticoid receptor = target: T2, glucocorticoid receptor (Homo sapiens, UniProt P04150); assay: Glucocorticoid Receptor Binding Assay ([3H]-dexamethasone, A549 cell extract); settings: [3H]-dexamethasone binding, read-out: GR Ki
T2 construct: containing 50-200 ug of A549 cell extract and 1.86 nM [^3H]-dexamethasone; host or cells: A549 human lung epithelial cells (sonicated cell extract)
T2 sequence (P04150 1-777): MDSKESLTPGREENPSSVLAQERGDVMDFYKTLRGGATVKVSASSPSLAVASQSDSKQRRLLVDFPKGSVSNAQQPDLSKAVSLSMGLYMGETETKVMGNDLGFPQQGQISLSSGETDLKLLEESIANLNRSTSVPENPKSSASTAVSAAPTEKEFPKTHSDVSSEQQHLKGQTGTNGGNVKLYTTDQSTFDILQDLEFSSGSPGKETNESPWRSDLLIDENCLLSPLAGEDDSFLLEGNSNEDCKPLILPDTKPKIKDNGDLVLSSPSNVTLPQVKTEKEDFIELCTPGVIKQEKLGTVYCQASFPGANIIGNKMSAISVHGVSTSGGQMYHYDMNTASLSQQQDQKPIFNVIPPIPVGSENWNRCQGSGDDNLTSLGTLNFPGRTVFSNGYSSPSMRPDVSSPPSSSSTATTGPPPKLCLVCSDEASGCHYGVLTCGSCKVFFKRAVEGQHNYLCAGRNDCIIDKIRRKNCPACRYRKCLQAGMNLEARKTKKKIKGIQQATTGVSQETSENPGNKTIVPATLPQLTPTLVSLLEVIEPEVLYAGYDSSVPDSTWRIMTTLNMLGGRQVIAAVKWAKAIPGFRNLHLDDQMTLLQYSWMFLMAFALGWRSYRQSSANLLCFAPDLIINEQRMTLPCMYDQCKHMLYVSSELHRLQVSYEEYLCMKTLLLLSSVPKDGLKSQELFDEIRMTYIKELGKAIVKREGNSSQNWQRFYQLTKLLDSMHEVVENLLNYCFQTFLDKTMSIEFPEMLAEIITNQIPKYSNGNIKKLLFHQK
Procedure: All ligands, radioligands, solvents, and reagents employed in the binding assays are readily available from commercial sources, or can be readily synthesized by the ordinarily skilled artisan.
A549 human lung epithelial cells (ATCC) are grown at a scale where gram quantity cell pellets are obtained. Harvested cell pellets are washed twice in cold phosphate buffered saline, centrifuged, and resuspended in cold assay binding buffer. The assay binding buffer consists of 10% glycerol, 50 mM Tris-HCl (pH7.2), 75 mM sodium chloride, 1.5 mM magnesium chloride, 1.5 mM EDTA, and 10 mM sodium molybdate. Cell suspensions were lysed via sonication, centrifuged, and the “extract” supernatant is snap frozen and stored at −80 C until needed.
GR binding assays are performed in a final volume of 140 ul containing 50-200 ug of A549 cell extract and 1.86 nM [^3H]-dexamethasone (Amersham) plus varying concentrations of test compound or vehicle. Briefly, assays are prepared at RT in 96-well Fisher 3356 plates, each well containing 100 ul of A549 cell extract, 20 ul of [^3H]-dexamethasone, and 20 ul of test compound/vehicle. Incubations are carried out at 4 degrees Celsius for 16 hours. After incubation, 70 ul of 3× dextran-coated charcoal solution is added to each reaction, mixed, and incubated for 8 minutes at RT. 3×-dextran-coated charcoal solution consists of 250 ml assay binding buffer, 3.75 g Norit A charcoal (Sigma), and 1.25 g dextran T-70 (Amersham). Charcoal/unbound radioligand complexes are removed by centrifugation of the plate and 140 ul of supernatant from each well is transferred to another 96 well Optiplate (Packard Instruments). 200 ul of Microscint-20 scinillant (Packard Instruments) is added to each well and amount of receptor bound radioligand is determined using Packard Instruments TopCount instrument.

Row | SMILES | Ki (human MR) [nM] | Ki (glucocorticoid receptor) [nM]
1 | Oc1cccc(C=C2c3ccccc3CCc3c(Cl)cccc32)c1 [211(a), 3-(1-Chloro-10,11-dihydro-dibenzo[a,d]cyclohepten-5-ylidenemethyl)-phenol] | < 500 | < 500
2 | Oc1cccc(C=C2c3ccccc3CCc3c(Cl)cccc32)c1 [211(b), 3-(1-Chloro-10,11-dihydro-dibenzo[a,d]cyclohepten-5-ylidenemethyl)-phenol] | < 500 | < 1000
3 | Cc1nc2c(s1)/C(=C/c1cccc(NS(C)(=O)=O)c1)c1ccccc1CC2 [483(a), N-[3-(2-Methyl-9,10-dihydro-3-thia-1-aza-benzo[f]azulen-4-ylidenemethyl)-phenyl]-methanesulfonamide] | < 500 | < 500
4 | Cc1nc2c(s1)/C(=C\c1cccc(NS(C)(=O)=O)c1)c1ccccc1CC2 [483(b), N-[3-(2-Methyl-9,10-dihydro-3-thia-1-aza-benzo[f]azulen-4-ylidenemethyl)-phenyl]-methanesulfonamide] | < 500 | < 500
5 | CS(=O)(=O)Nc1cccc(/C=C2\c3ccccc3CCc3scnc32)c1 [484(a), N-[3-(9,10-Dihydro-1-thia-3-aza-benzo[f]azulen-4-ylidenemethyl)-phenyl]-methanesulfonamide] | < 1000 | < 500
6 | CS(=O)(=O)Nc1cccc(/C=C2/c3ccccc3CCc3scnc32)c1 [484(b), N-[3-(9,10-Dihydro-1-thia-3-aza-benzo[f]azulen-4-ylidenemethyl)-phenyl]-methanesulfonamide] | < 500 | < 500
7 | NS(=O)(=O)c1ccccc1C=C1c2ccccc2CCc2ccccc21 [Example 3, 2-(10,11-Dihydro-dibenzo[a,d]cyclohepten-5-ylidenemethyl)-benzenesulfonamide] | < 1000 | < 1000
8 | CN(C)S(=O)(=O)c1ccccc1C=C1c2ccccc2CCc2ccccc21 [Example 5, 2-(10,11-Dihydro-dibenzo[a,d]cyclohepten-5-ylidenemethyl)-N,N-dimethyl-benzenesulfonamide] | < 500 | < 500
9 | COc1ccc(N)cc1C=C1c2ccccc2CCc2ccccc21 [Example 41, 3-(10,11-Dihydro-dibenzo[a,d]cyclohepten-5-ylidenemethyl)-4-methoxy-phenylamine] | < 1000 | < 10000
10 | COc1ccc(NS(C)(=O)=O)cc1C=C1c2ccccc2CCc2ccccc21 [Example 42, N-[3-(10,11-Dihydro-dibenzo[a,d]cyclohepten-5-ylidenemethyl)-4-methoxy-phenyl]-methanesulfonamide] | < 500 | < 10000
11 | Cc1ccc(C=C2c3ccccc3CCc3ccccc32)cc1NS(C)(=O)=O [Example 45, N-[5-(10,11-Dihydro-dibenzo[a,d]cyclohepten-5-ylidenemethyl)-2-methyl-phenyl]-methanesulfonamide] | < 500 | < 1000
12 | Cc1ccc(NS(C)(=O)=O)cc1C=C1c2ccccc2CCc2ccccc21 [Example 47, N-[3-(10,11-Dihydro-dibenzo[a,d]cyclohepten-5-ylidenemethyl)-4-methyl-phenyl]-methanesulfonamide] | < 500 | < 1000
13 | Cc1c(C=C2c3ccccc3CCc3ccccc32)cccc1NS(C)(=O)=O [Example 48, N-[3-(10,11-Dihydro-dibenzo[a,d]cyclohepten-5-ylidenemethyl)-2-methyl-phenyl]-methanesulfonamide] | < 500 | < 500
14 | CS(=O)(=O)Nc1cc(C=C2c3ccccc3CCc3ccccc32)ccc1F [Example 49, N-[5-(10,11-Dihydro-dibenzo[a,d]cyclohepten-5-ylidenemethyl)-2-fluoro-phenyl]-methanesulfonamide] | < 500 | < 500

Further lines, results first:

Row | Ki (human MR) [nM] | Ki (glucocorticoid receptor) [nM] | SMILES
15 | < 500 | < 1000 | Oc1cccc(C=C2c3ccccc3CCc3cc(OCCN4CCOCC4)ccc32)c1 [195(a), 3-[2-(2-Morpholin-4-yl-ethoxy)-10,11-dihydro-dibenzo[a,d]cyclohepten-5-ylidenemethyl]-phenol]
16 | < 500 | < 500 | CS(=O)(=O)Nc1cccc(C=C2c3ccccc3CCc3c2ccc(Cl)c3Cl)c1 [197(a), N-[3-(1,2-Dichloro-10,11-dihydro-dibenzo[a,d]cyclohepten-5-ylidenemethyl)-phenyl]-methanesulfonamide]
17 | < 500 | < 500 | Oc1cccc(C=C2c3ccccc3CCc3c2ccc(Cl)c3Cl)c1 [198(a), 3-(1,2-Dichloro-10,11-dihydro-dibenzo[a,d]cyclohepten-5-ylidenemethyl)-phenol]
18 | < 500 | < 1000 | Oc1cccc(C=C2c3ccccc3CCc3c2ccc(Cl)c3Cl)c1 [198(b), 3-(1,2-Dichloro-10,11-dihydro-dibenzo[a,d]cyclohepten-5-ylidenemethyl)-phenol]
19 | < 500 | < 500 | CS(=O)(=O)Nc1cccc(C=C2c3ccccc3CCc3cc(F)ccc32)c1 [199(a), N-[3-(2-Fluoro-10,11-dihydro-dibenzo[a,d]cyclohepten-5-ylidenemethyl)-phenyl]-methanesulfonamide]
20 | < 500 | < 500 | Oc1cccc(C=C2c3ccccc3CCc3cc(F)ccc32)c1 [200(a), 3-(2-Fluoro-10,11-dihydro-dibenzo[a,d]cyclohepten-5-ylidenemethyl)-phenol]
21 | < 500 | < 500 | CS(=O)(=O)Nc1cccc(C=C2c3ccccc3CCc3cc(Cl)ccc32)c1 [206(b), N-[3-(2-Chloro-10,11-dihydro-dibenzo[a,d]cyclohepten-5-ylidenemethyl)-phenyl]-methanesulfonamide]
